The structures appear in SMILES notation.

Chain of RORγ receptor (B-RORγ LBD) (P51449 269-508): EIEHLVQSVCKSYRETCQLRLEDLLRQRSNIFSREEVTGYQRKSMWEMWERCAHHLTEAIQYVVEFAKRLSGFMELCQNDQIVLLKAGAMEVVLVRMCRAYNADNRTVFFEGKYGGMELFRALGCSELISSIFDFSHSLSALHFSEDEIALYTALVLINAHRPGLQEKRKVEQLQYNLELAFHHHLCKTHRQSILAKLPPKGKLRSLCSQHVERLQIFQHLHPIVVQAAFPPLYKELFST

The test addresses RORγ receptor (B-RORγ LBD) (Homo sapiens (Human), UniProt P51449). Description: Inhibitory activity on RORγ receptor in vitro by fluorescence resonance energy transfer (FRET). As to conditions: average of at least two independent tests. It counts as biochemical. The method, then: The inhibitory activity of compounds on RORγ receptor was determined by fluorescence resonance energy transfer (FRET) experiments. The inhibitory activity was expressed by half-inhibitory concentration (IC50).
1. Preparation of RORγ Buffer Solution
10 mL of DTT and 100 mL buffer solution were gently mixed together and ready to use.
2. Preparation of Compound Solution
3. Preparation of Protein Mixture a. 40 nM B-RORγ LBD solution and 20 nM SA-APC solution were gently mixed together. The reaction mixture was incubated for 15 minutes at room temperature. Then 400 nM Biotin was added to the described above mixture. After gently mixed together, the resulting mixture was incubated for 10 minutes at room temperature. […]
b. 40 nM Bioin-SRC1 solution and 10 nM SA-eu solution were gently mixed together, and the reaction mixture was incubated for 15 minutes at room temperature. Then 200 nM Biotin was added to the described above mixture. After gently mixed together, the resulting mixture was incubated for 10 minutes at room temperature. […]
d. A mixture of 0.1 μM alternative agonist
N-(2-chloro-6-fluorophenyl)-N-((20-methoxy-[1,10-biphenylyl]-4-substituted)methyl)benzenesulfonamide, 25 μL B-RORγ LBD/SA-APC and Bioin-SRC1/SA-eu mixture solution with test compound were added to one of the well of a 384-well plate, then they were centrifuged for 1 minute at 1000 rpm, and incubated at room temperature for 1 hour. The values were read on the Envision microplate detector and IC50 was calculated.
In turn, `CN(Cc1ccc(CC(=O)O)cc1)C(=O)Nc1cc(Cl)c(-c2ccccc2OC(F)(F)F)c(Cl)c1` [Example 1-28, 2-(4-((3-(2,6-dichloro-2′-(trifluoromethoxy)-[1,1′-biphenyl]-4-yl)-1-methylureido)methyl)phenyl)acetic acid] had a half-inhibitory concentration (IC50) of 500 to 5000 nM. As to `CNS(=O)(=O)c1ccc(CNC(=O)Nc2cc(Cl)c(-c3ccccc3OC(F)(F)F)c(Cl)c2)nc1` [Example 1-13, 6-((3-(2,6-dichloro-2′-(trifluoromethoxy)-[1,1′-biphenyl]-4-yl)ureido)methyl)-N-methylpyridine-3-sulfonamide], the IC50 is less than 500 nM. To `CN(C(=O)NCc1ccc(CC(=O)O)cc1)c1cc(Cl)c(-c2ccccc2OC(F)(F)F)c(Cl)c1` [Example 1-27, 2-(4-((3-(2,6-dichloro-2′-(trifluoromethoxy)-[1,1′-biphenyl]-4-yl)-3-methylureido)methyl)phenyl)acetic acid] belongs 500 to 5000 nM; to `CCS(=O)(=O)c1ccc(CNC(=O)Nc2cc(Cl)c(-c3ccccc3OC(F)(F)F)c(Cl)c2)nc1` [Example 1-11, 1-(2,6-dichloro-2′-(trifluoromethoxy)-[1,1′-biphenyl]-4-yl)-3-((5-(ethylsulfonyl)pyridine-2-yl)methyl)urea], less than 500 nM; to `O=C(NCc1ccc(C(O)C(=O)O)cc1)Nc1cc(Cl)c(-c2ccccc2OC(F)(F)F)c(Cl)c1` (stereo not shown) [Example 1-37, 2-(4-((3-(2,6-dichloro-2′-(trifluoromethoxy)-[1,1′-biphenyl]-4-yl)ureido)methyl)phenyl)-2-hydroxyacetic acid], less than 500 nM. `CC(C(=O)O)c1ccc(CNC(=O)Nc2cc(Cl)c(-c3ccccc3OC(F)(F)F)c(Cl)c2)cc1` (stereo not shown) [Example 1-24, 2-(4-((3-(2,6-dichloro-2′-(trifluoromethoxy)-[1,1′-biphenyl]-4-yl)ureido)methyl)phenyl)propanoic acid] gave an IC50 of 500 to 5000 nM. To `CC(C(=O)O)c1ccc(CNC(=O)Nc2cc(Cl)c(-c3ccccc3OC(F)(F)F)c(Cl)c2)nc1` (stereo not shown) [Example 1-30, 2-(6-((3-(2,6-dichloro-2′-(trifluoromethoxy)-[1,1′-biphenyl]-4-yl)ureido)methyl)pyridin-3-yl)propanoic acid] belongs 500 to 5000 nM.

Compound `CCS(=N)(=O)c1ccc(CNC(=O)Nc2cc(Cl)c(-c3ccccc3OC(F)(F)F)c(Cl)c2)cc1` (stereo not shown) [Example 1-9, 1-(2,6-dichloro-2′-(trifluoromethoxv)-[1,1′-biphenyl]-4-yl)-3-(4-(ethylsulfonimidoyl)benzyl)urea] returned a half-inhibitory concentration (IC50) of less than 500 nM. As for `O=C(O)CCc1ccc(CNC(=O)Nc2cc(Cl)c(-c3ccccc3OC(F)(F)F)c(Cl)c2)cc1` [Example 1-36, 3-(4-((3-(2,6-dichloro-2′-(trifluoromethoxy)-[1,1′-biphenyl]-4-yl)ureido)methyl)phenyl)propanoic acid], the figure is 500 to 5000 nM; as for `CS(=O)(=O)c1ccc(CNC(=O)Nc2cc(Cl)c(-c3ccccc3OC(F)(F)F)c(Cl)c2)nc1` [Example 1-12, 1-(2,6-dichloro-2′-(trifluoromethoxy)-[1,1′-biphenyl]-4-yl)-3-((5-(methylsulfonyl)pyridine-2-yl)methyl)urea], less than 500 nM. `Cc1cc(CC(=O)O)ccc1CNC(=O)Nc1cc(Cl)c(-c2ccccc2OC(F)(F)F)c(Cl)c1` [Example 1-34, 3-(4-((3-(2,6-dichloro-2′-(trifluoromethoxy)-[1,1′-biphenyl]-4-yl)ureido)methyl)-3-methylphenyl)acetic acid] gave an IC50 of less than 500 nM. As for `O=C(NCc1ccc(C(F)C(=O)O)cc1)Nc1cc(Cl)c(-c2ccccc2OC(F)(F)F)c(Cl)c1` (stereo not shown) [Example 1-38, 2-(4-((3-(2,6-dichloro-2′-(trifluoromethoxy)-[1,1′-biphenyl]-4-yl)ureido)methyl)phenyl)-2-fluoroacetic acid], the figure is less than 500 nM; as for `Cc1cc(CNC(=O)Nc2cc(Cl)c(-c3ccccc3OC(F)(F)F)c(Cl)c2)ccc1CC(=O)O` [Example 1-31, 3-(4-((3-(2,6-dichloro-2′-(trifluoromethoxy)-[1,1′-biphenyl]-4-yl)ureido)methyl)-2-methylphenyl)acetic acid], 500 to 5000 nM.

For the origin of these results see US10647665B2, “Biaryl urea derivative or salt thereof and preparation process and use for the same” (Fudan University, priority 2016, dated 2020).
